Assays:
[1] = test system: chondrocytes articulaires humains; experiment: RT-PCR mRNA expression in IL-1β-stimulated human articular chondrocytes; assay type: cell-based; settings: IL-1β 1ng/mL, 48h, increasing doses of tolcapone, mRNA normalised to RPL13A
Text: Les cellules ont été obtenus à partir de déchets opératoires selon la réglementation en vigueur (protocole approuvé par le comité de protection des personnes (CPP) Nord-Ouest III). Après la signature du consentement libre et éclairé par les patients, des têtes fémorales, des membranes synoviales et de la moelle osseuse sont récupérées à l'issue d'opération d'arthroplastie de la hanche chez des patients arthrosiques.
Les têtes fémorales sont disséquées et des copeaux de cartilages sont réalisés. Les chondrocytes sont libérés par digestion à la pronase de type XIV (2 mg/ml pendant 15 minutes; Sigma), suivie d'une digestion à la collagénase de type II (2 mg/ml pendant une nuit; Gibco). Les cellules sont ensuite ensemencées à 4×10^4 cellules/cm^2 dans du milieu Eagle modifié de Dulbecco (DMEM) supplémenté avec 10% de sérum de veau foetal (SVF) avec un cocktail d'antibiotiques. Elles sont ensuite incubées à 37°C dans une atmosphère humidifiée contenant 5% de CO2.
Pour les trois types cellulaires, les cellules ont été amplifiées dans une enceinte humide à 37°C sous 5% de CO2. Les milieux de culture sont changés 2 à 3 fois par semaine. Un test mycoplasme a été réalisé afin de vérifier qu'elles ne sont pas contaminées. […]

[2] = test system: modèle murin d'arthrose (MIA); experiment: Knee histology (safranine-O / Fast Green) in murine osteoarthritis model (MIA); assay type: in vivo, souris C57BL7; settings: intra-articular injections at 1, 2, 3 and 4 weeks after induction; histology at 8 weeks; versus MIA+vehicule; figure 5
Text: (§1) Cette étude a été autorisée par le ministère de l'Enseignement Supérieur, de la Recherche et de l'Innovation après avis favorable du comité d'éthique locale, CENOMEXA (agrément n°B14118015). L'étude est réalisée au sein d'une animalerie agrée (UMS-CYCERON). Des souris C57BL7 mâles, âgées de 10 semaines ont été utilisés. Les souris étaient placées par cage de 8, en cycle inversé, nourriture et eau disponible ad libidum. L'état de santé de chaque souris était évalué quotidiennement.
(§2) Les injections intra-articulaires (MIA ou tolcapone) ont également été réalisées sous anesthésie générale. Après un repérage clinique du ligament patellaire, les injections sont faites par voie intra articulaire du genou après passage du ligament patellaire à l'aiguille 27 Gauge.
Les articulations sont placées dans une solution de fixation (formaldehyde 37%, PBS) pendant 3 jours, puis décalcifié à l'aide d'Osteosoft pendant 48h. Ensuite, les articulations sont conservées à -80°C dans l'Optimal Cutting Temperature compound (OCT). Des coupes de 10 µm d'épaisseur ont été réalisées à -25°C à l'aide d'un Cryostat (CM 3050 S, Leica BIOSYSTEMS, France), puis montées sur des lames de microscopies SuperFrost®. Les lames sont ensuite colorées au Fast Green puis à la safranine-O. La safranine-O permet de mettre en évidence les composants du cartilage articulaire. […]

[3] = test system: modèle murin d'arthrose (MIA); experiment: Von Frey filament test (mechanical allodynia) in murine osteoarthritis model (MIA); assay type: in vivo, souris C57BL7; settings: intra-articular injections at 1, 2, 3 and 4 weeks after induction of osteoarthritis; arthritic paw relative to contralateral paw; figure 4B
Text: as §1, §2
L'allodynie (douleur déclenchée pour un stimulus qui est normalement indolore) mécanique est évaluée par le test des filaments de Von Frey (BIOSEB In Vivo Research Instruments®). Ce test repose sur le principe selon lequel lorsque l'extrémité du filament (de longueur et de diamètre donnés) est appliquée perpendiculairement, la force exercée par le filament augmente jusqu'à ce que le filament fléchisse. Au-delà, la force exercée par le filament reste constante. Pour ce test, les souris sont placées dans une cage individuelle, sur une grille. Une période d'habituation de 30 minutes était requise avant le début du test. […]

Cc1ccc(C(=O)c2cc(O)c(O)c([N+](=O)[O-])c2)cc1 [tolcapone]
expression de gènes impliqués dans le catabolisme (tel que MMP13) ([1]; figure 3A): réduit notamment l'expression de gènes impliqués dans le catabolisme (tel que MMP13) | expression de gènes impliqués dans l'inflammation (tel que l'IL-6) ([1]; figure 3B): réduit notamment l'expression | dommages articulaires (étude histologique) [2]: réduit les dommages articulaires | dégradation du cartilage (étude histologique) [2]: très fortement limité la dégradation du cartilage | douleur induite (Von Frey) [3]: réduit nettement la douleur induite

— patent publication EP4360627A1, “TREATMENT OF OSTEOARTHRITIS WITH COMT INHIBITORS” (Institut National de la Santé et de la Recherche Médicale …, priority 2022, dated 2024)
